According to patent US9586962B2, “Disubstituted octahydropyrrolo [3,4-C] pyrroles as orexin receptor modulators” (Janssen Pharmaceutica NV, priority 2011, dated 2017):

The compounds below were run against human orexin 2 receptor (Homo sapiens (Human), UniProt O43614) (assay: Human orexin 2 receptor Ca2+ mobilization assay (FLIPR, PFSK cells, orexin B 100 nM)). Settings: modified Cheng-Prusoff correction, read-out: OR 2 Kb.
Format: cell-based
Procedure: Human Orexin 2 Receptor Ca^2+ Mobilization Assay
Cells were seeded on to 96-well Packard viewplates at a density of 50,000 cells/well and incubated overnight at 37° C., 5% CO2. The cells were dye-loaded with 4 μM Ca^2+ dye Fluo-3AM in serum-free DMEM/F-12 with 2.5 mM probenecid and incubated at 37° C., 5% CO2 for one hour. Cells were pre-incubated with compounds (diluted in DMEM/F-12) for 30 minutes before agonist (orexin B, 100 nM) stimulation. Ligand-induced Ca^2+ release was measured using a Fluorometric Imaging Plate Reader (FLIPR, Molecular Devices, Sunnyvale, Calif.). Functional responses were measured as peak fluorescence intensity minus basal. The concentration of agonist that produced a half-maximal response is represented by the EC50 value. Antagonistic potency values were converted to apparent pKB values using a modified Cheng-Prusoff correction. Apparent pKB=−log IC50/1+[conc agonist/EC50]. Data are expressed as mean±S.E.M, the designation of NT means not tested.

Sequence of human orexin 2 receptor (O43614 whole entry): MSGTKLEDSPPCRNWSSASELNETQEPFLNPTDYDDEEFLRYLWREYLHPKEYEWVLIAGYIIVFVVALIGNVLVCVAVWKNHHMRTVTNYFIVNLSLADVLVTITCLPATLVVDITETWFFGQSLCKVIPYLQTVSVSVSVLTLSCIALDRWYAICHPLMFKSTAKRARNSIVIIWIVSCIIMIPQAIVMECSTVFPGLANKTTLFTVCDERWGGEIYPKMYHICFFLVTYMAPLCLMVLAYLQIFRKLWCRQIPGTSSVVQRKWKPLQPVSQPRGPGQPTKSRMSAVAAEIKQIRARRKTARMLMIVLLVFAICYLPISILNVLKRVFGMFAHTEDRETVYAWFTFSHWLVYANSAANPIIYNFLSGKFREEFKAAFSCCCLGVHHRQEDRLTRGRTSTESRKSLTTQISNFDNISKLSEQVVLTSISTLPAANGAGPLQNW

SMILES	Kb
Cc1cccc(N2CC3CN(C(=O)c4ccccc4-c4cccs4)CC3C2)n1 (centres unmarked) [Example 134, 2-(6-Methylpyridin-2-yl)-5-[(2-thiophen-2-ylphenyl)carbonyl]octahydropyrrolo[3,4-c]pyrrole]	12 nM
Cc1cc(N2CC3CN(C(=O)c4ccccc4-n4nccn4)CC3C2)nc(C(F)(F)F)n1 (centres unmarked) [Example 97, 2-[6-Methyl-2-(trifluoromethyl)pyrimidin-4-yl]-5-{[2-(2H-1,2,3-triazol-2-yl)phenyl]carbonyl}octahydropyrrolo[3,4-c]pyrrole]	16 nM
Cc1nc(N2CC3CN(C(=O)c4ncccc4-n4nccn4)CC3C2)nc(C)c1C (centres unmarked) [Example 323, 2-{[3-(2H-1,2,3-Triazol-2-yl)pyridin-2-yl]carbonyl}-5-(4,5,6-trimethylpyrimidin-2-yl)octahydropyrrolo[3,4-c]pyrrole]	4 nM
Cc1cc(C)nc(N2CC3CN(C(=O)c4cccc(F)c4-c4ncccc4F)CC3C2)n1 (centres unmarked) [Example 375, (5-(4,6-Dimethylpyrimidin-2-yl)hexahydropyrrolo[3,4-c]pyrrol-2(1H)-yl)(3-fluoro-2-(3-fluoropyridin-2-yl)phenyl)methanone]	4 nM
Cc1cc(C)nc(N2CC3CN(C(=O)c4cc(F)ccc4-c4ncccn4)CC3C2)n1 (centres unmarked) [Example 74, 2-(4,6-Dimethylpyrimidin-2-yl)-5-[(5-fluoro-2-pyrimidin-2-ylphenyl)carbonyl]octahydropyrrolo[3,4-c]pyrrole]	10 nM
Cc1ccc(-c2ncccn2)c(C(=O)N2CC3CN(c4cc(C(F)(F)F)nc(N(C)C)n4)CC3C2)c1 (centres unmarked) [Example 108, N,N-Dimethyl-4-{5-[(5-methyl-2-pyrimidin-2-ylphenyl)carbonyl]hexahydropyrrolo[3,4-c]pyrrol-2(1H)-yl}-6-(trifluoromethyl)pyrimidin-2-amine]	25 nM
O=C(c1cccc(F)c1-c1ncccn1)N1CC2CN(c3cnc4cc(F)c(F)cc4n3)CC2C1 (centres unmarked) [Example 387, (5-(6,7-Difluoroquinoxalin-2-yl)hexahydropyrrolo[3,4-c]pyrrol-2(1H)-yl)(3-fluoro-2-(pyrimidin-2-yl)phenyl)methanone]	9 nM
O=C(c1ccccc1-c1ccccc1)N1CC2CN(c3nccc(-c4ccccc4)n3)CC2C1 (centres unmarked) [Example 164, 2-(Biphenyl-2-ylcarbonyl)-5-(4-phenylpyrimidin-2-yl)octahydropyrrolo[3,4-c]pyrrole]	200 nM
CN(C)c1nc(N2CC3CN(C(=O)c4ccc(F)cc4-n4nccn4)CC3C2)cc(C(F)(F)F)n1 (centres unmarked) [Example 111, [5-(2-Dimethylamino-6-trifluoromethyl-pyrimidin-4-yl)-hexahydro-pyrrolo[3,4-c]pyrrol-2-yl]-(4-fluoro-2-[1,2,3]triazol-2-yl-phenyl)-methanone]	16 nM
Cc1ccnc(-c2c(F)cccc2C(=O)N2CC3CN(c4nc(C)cc(C)n4)CC3C2)c1 (centres unmarked) [Example 373, (5-(4,6-Dimethylpyrimidin-2-yl)hexahydropyrrolo[3,4-c]pyrrol-2(1H)-yl)(3-fluoro-2-(4-methylpyridin-2-yl)phenyl)methanone]	5 nM
Cc1cc(N2CC3CN(C(=O)c4c(F)cccc4-n4nccn4)CC3C2)nc(C(F)(F)F)n1 (centres unmarked) [Example 98, 2-{[2-Fluoro-6-(2H-1,2,3-triazol-2-yl)phenyl]carbonyl}-5-[6-methyl-2-(trifluoromethyl)pyrimidin-4-yl]octahydropyrrolo[3,4-c]pyrrole]	10 nM
Cc1ccc2ccccc2c1C(=O)N1CC2CN(c3cnc4ccccc4n3)CC2C1 (centres unmarked) [Example 20, 2-{5-[(2-Methylnaphthalen-1-yl)carbonyl]hexahydropyrrolo[3,4-c]pyrrol-2(1H)-yl}quinoxaline]	129 nM
COc1ccnc(N2CC3CN(C(=O)c4c(C)ccc5ccccc45)CC3C2)n1 (centres unmarked) [Example 49, 2-(4-Methoxypyrimidin-2-yl)-5-[(2-methylnaphthalen-1-yl)carbonyl]octahydro-pyrrolo[3,4-c]pyrrole]	32 nM
CCc1c(C)nc(N2CC3CN(C(=O)c4ncccc4-n4nccn4)CC3C2)nc1C (centres unmarked) [Example 385, 2-(5-Ethyl-4,6-dimethylpyrimidin-2-yl)-5-{[3-(2H-1,2,3-triazol-2-yl)pyridin-2-yl]carbonyl}octahydropyrrolo[3,4-c]pyrrole]	8 nM
O=C(c1ccccc1-c1ccccc1)N1CC2CN(c3nc4ccc(F)cc4s3)CC2C1 (centres unmarked) [Example 176, 2-[5-(Biphenyl-2-ylcarbonyl)hexahydropyrrolo[3,4-c]pyrrol-2(1H)-yl]-6-fluoro-1,3-benzothiazole]	158 nM
CCOc1ccc2ccccc2c1C(=O)N1CC2CN(c3nc(C)cc(C)n3)CC2C1 (centres unmarked) [Example 77, 2-(4,6-Dimethylpyrimidin-2-yl)-5-[(2-ethoxynaphthalen-1-yl)carbonyl]octahydro-pyrrolo[3,4-c]pyrrole]	16 nM

SMILES	Kb
Cc1ccc(-c2ncccn2)c(C(=O)N2CC3CN(c4nc(C)cc(C)n4)CC3C2)c1 (centres unmarked) [Example 102, 2-(4,6-Dimethylpyrimidin-2-yl)-5-[(5-methyl-2-pyrimidin-2-ylphenyl)carbonyl]octahydropyrrolo[3,4-c]pyrrole]	6 nM
CN(C)c1nc(N2CC3CN(C(=O)c4c(F)cccc4-n4nccn4)CC3C2)cc(C(F)(F)F)n1 (centres unmarked) [Example 106, 4-[5-{[2-Fluoro-6-(2H-1,2,3-triazol-2-yl)phenyl]carbonyl}hexahydropyrrolo[3,4-c]pyrrol-2(1H)-yl]-N,N-dimethyl-6-(trifluoromethyl)pyrimidin-2-amine]	20 nM
Cc1cnc(C)c(N2CC3CN(C(=O)c4ccc(F)cc4-n4nccn4)CC3C2)n1 (centres unmarked) [Example 104, 2-(3,6-Dimethylpyrazin-2-yl)-5-{[4-fluoro-2-(2H-1,2,3-triazol-2-yl)phenyl]carbonyl}octahydropyrrolo[3,4-c]pyrrole]	25 nM
CCOc1ccccc1C(=O)N1CC2CN(c3nc(C)cc(C)n3)CC2C1 (centres unmarked) [Example 88, 2-(4,6-Dimethylpyrimidin-2-yl)-5-[(2-ethoxyphenyl)carbonyl]octahydropyrrolo[3,4-c]pyrrole]	25 nM
Cc1cnc(C)c(N2CC3CN(C(=O)c4ccccc4-n4nccn4)CC3C2)n1 (centres unmarked) [Example 155, 2-(3,6-Dimethylpyrazin-2-yl)-5-{[2-(2H-1,2,3-triazol-2-yl)phenyl]carbonyl}octa hydropyrrolo[3,4-c]pyrrole]	16 nM
Cc1nc(N2CC3CN(C(=O)c4ccccc4-c4ncn(C)n4)CC3C2)ncc1Cl (centres unmarked) [Example 321, 2-(5-Chloro-4-methylpyrimidin-2-yl)-5-{[2-(1-methyl-1H-1,2,4-triazol-3-yl)phenyl]carbonyl}octahydropyrrolo[3,4-c]pyrrole]	10 nM
Cc1cc(C)nc(N2CC3CN(C(=O)c4occc4-c4ccccc4)CC3C2)n1 (centres unmarked) [Example 13, 2-(4,6-Dimethylpyrimidin-2-yl)-5-[(3-phenylfuran-2-yl)carbonyl]octahydropyrrolo[3,4-c]pyrrole]	79 nM
COc1cc(N2CC3CN(C(=O)c4c(F)cccc4-n4nccn4)CC3C2)nc(N(C)C)n1 (centres unmarked) [Example 1, 4-[5-{[2-Fluoro-6-(2H-1,2,3-triazol-2-yl)phenyl]carbonyl}hexahydropyrrolo[3,4-c]pyrrol-2(1H)-yl]-6-methoxy-N,N-dimethylpyrimidin-2-amine]	10 nM
Cc1cc(C)nc(N2CC3CN(C(=O)c4cccnc4-c4ccn[nH]4)CC3C2)n1 (centres unmarked) [Example 237, (2-(1H-Pyrazol-5-yl)pyridin-3-yl)(5-(4,6-dimethylpyrimidin-2-yl)hexahydropyrrolo[3,4-c]pyrrol-2(1H)-yl)methanone]	18 nM
Cc1cc(C)nc(N2CC3CN(C(=O)c4cccc(F)c4-c4ncccn4)CC3C2)n1 (centres unmarked) [Example 283, 2-(4,6-Dimethylpyrimidin-2-yl)-5-[(3-fluoro-2-pyrimidin-2-ylphenyl)carbonyl]octahydropyrrolo[3,4-c]pyrrole]	2 nM
Cc1cc(N2CC3CN(C(=O)c4ccccc4-c4ccccc4)CC3C2)nc2ccccc12 (centres unmarked) [Example 178, 2-[5-(Biphenyl-2-ylcarbonyl)hexahydropyrrolo[3,4-c]pyrrol-2(1H)-yl]-4-methylquinoline]	126 nM
O=C(c1cc(F)ccc1-c1ncccn1)N1CC2CN(c3nccc(-c4ccccc4)n3)CC2C1 (centres unmarked) [Example 113, 2-[(5-Fluoro-2-pyrimidin-2-ylphenyl)carbonyl]-5-(4-phenylpyrimidin-2-yl)octahydropyrrolo[3,4-c]pyrrole]	63 nM
Cc1noc(-c2ccccc2C(=O)N2CC3CN(c4nc(C)c(Cl)c(C)n4)CC3C2)n1 (centres unmarked) [Example 318, 2-(5-Chloro-4,6-dimethylpyrimidin-2-yl)-5-{[2-(3-methyl-1,2,4-oxadiazol-5-yl)phenyl]carbonyl}octahydropyrrolo[3,4-c]pyrrole]	3 nM
Cc1cc(C)nc(N2CC3CN(C(=O)c4c(F)cccc4-c4nc(C)no4)CC3C2)n1 (centres unmarked) [Example 315, 2-(4,6-Dimethylpyrimidin-2-yl)-5-{[2-fluoro-6-(3-methyl-1,2,4-oxadiazol-5-yl)phenyl]carbonyl}octahydropyrrolo[3,4-c]pyrrole]	10 nM
Cc1cc(C)nc(N2CC3CN(C(=O)c4cccc(F)c4I)CC3C2)n1 (centres unmarked) [Example 232, (5-(4,6-Dimethylpyrimidin-2-yl)hexahydropyrrolo[3,4-c]pyrrol-2(1H)-yl)(3-fluoro-2-iodophenyl)methanone]	7 nM
CN(C)c1nc(N2CC3CN(C(=O)c4c(F)cccc4-c4ncccn4)CC3C2)cc(C(F)(F)F)n1 (centres unmarked) [Example 116, 4-{5-[(2-Fluoro-6-pyrimidin-2-ylphenyl)carbonyl]hexahydropyrrolo[3,4-c]pyrrol-2(1H)-yl}-N,N-dimethyl-6-(trifluoromethyl)pyrimidin-2-amine]	13 nM
